Laboratory results: ChEMBL document CHEMBL4842375, “Discovery of a Potent Glutathione Peroxidase 4 Inhibitor as a Selective Ferroptosis Inducer” (J Med Chem, 2021)
Activity calls are given as the source filed them. No cut-off for these calls is given here.

How the values were obtained:
[1] = system: 4T1; assay: Induction of intracellular ROS generation in mouse 4T1 cells at 2.5 uM incubated for 6 hrs by DCFH-DA staining based flow cytometric analysis; assay type: functional, cell-based
[2] = system: 4T1; assay: Cytotoxicity against mouse 4T1 cells assessed as reduction in cell viability incubated for 48 hrs by MTT assay; assay type: functional, cell-based; conditions: 4T1, 48 h
[3] = Selectivity index, ratio of IC50 for cytotoxicity against human HT-1080 cells in presence of Fer-1 to IC50 for cytotoxicity against human HT-1080 cells; assay type: functional
[4] = system: 4T1; assay: Induction of LPO accumulation in mouse 4T1 cells assessed as increase in MDA level at 2.5 uM incubated for 6 hrs; assay type: functional, cell-based
[5] = system: 4T1; assay: Induction of intracellular ROS generation in mouse 4T1 cells at 2.5 uM incubated for 6 hrs in presence of Fer-1 by DCFH-DA staining based flow cytometric analysis; assay type: functional, cell-based
[6] = system: 4T1; assay: Induction of ferroptosis in mouse 4T1 cells assessed as reduction in mitochondrial cristae at 5 uM incubated for 6 hrs by TEM analysis; assay type: functional, cell-based
[7] = biological target: T1, Phospholipid hydroperoxide glutathione peroxidase GPX4 (Homo sapiens) (UniProt P36969); assay: Inhibition of GPX4 in mouse 4T1 cells assessed as decrease in intracellular GPX4 activity at 5 uM after 6 hrs; assay type: cell-based
T1 sequence (whole entry): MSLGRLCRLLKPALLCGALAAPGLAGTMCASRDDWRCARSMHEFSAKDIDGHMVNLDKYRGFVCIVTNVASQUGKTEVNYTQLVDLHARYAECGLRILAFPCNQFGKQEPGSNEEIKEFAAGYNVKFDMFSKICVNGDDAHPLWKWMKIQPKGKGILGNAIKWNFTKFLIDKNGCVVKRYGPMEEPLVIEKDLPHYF

[8] = system: 4T1; assay: Induction of LPO accumulation in mouse 4T1 cells at 2.5 uM incubated for 6 hrs in presence of Fer-1 by C11-BODIPY staining based confocal laser scanning microscopic analysis; assay type: functional, cell-based
[9] = Toxicity in BALB/C mouse xenografted with mouse 4T1 cells assessed as change in morphology of tissues and cells at 15 to 30 mg/kg, iv administered every two days for total 5 times and monitered every two days; assay type: organism-based; conditions: in vivo, dose 15-30 mg/kg
[10] = system: 4T1; assay: Antitumor activity against mouse 4T1 cells xenografted in BALB/c mouse assessed as tumor growth inhibition at 15 mg/kg, iv administered every two days for total 5 times and monitered every two days by electronic caliper method; assay type: functional; conditions: 4T1, iv, 48 h, read-out: TGI
[11] = system: HT-1080; assay: Cytotoxicity against human HT-1080 cells assessed as reduction in cell viability incubated for 48 hrs by MTT assay; assay type: functional, cell-based; conditions: HT-1080, 48 h
[12] = system: 4T1; assay: Antitumor activity against mouse 4T1 cells xenografted in iv dosed BALB/c mouse assessed as tumor growth inhibition administered every two days for total 5 times and monitered every two days by electronic caliper method; assay type: functional, organism-based; conditions: dose 15-30 mg/kg
[13] = system: 4T1; assay: Induction of intracellular ROS generation in mouse 4T1 cells at 2.5 uM incubated for 6 hrs by DCFH-DA staining based confocal laser scanning microscopic analysis; assay type: functional, cell-based
[14] = system: MCF7; assay: Cytotoxicity against human MCF7 cells assessed as reduction in cell viability incubated for 48 hrs by MTT assay; assay type: functional, cell-based; conditions: MCF7, 48 h
[15] = system: 4T1; assay: Induction of ferroptosis in mouse 4T1 cells assessed as ruptured mitochondria at 5 uM incubated for 6 hrs by TEM analysis; assay type: functional
[16] = Toxicity in BALB/C mouse xenografted with mouse 4T1 cells assessed as change in biochemical indexes at 15 to 30 mg/kg, iv administered every two days for total 5 times and monitered every two days; assay type: organism-based; conditions: in vivo, dose 15-30 mg/kg
[17] = Toxicity in BALB/C mouse xenografted with mouse 4T1 cells assessed as change in body weight at 15 to 30 mg/kg, iv administered every two days for total 5 times and monitered every two days; assay type: organism-based; conditions: in vivo, dose 15-30 mg/kg
[18] = Stability of compound in glutathione after 12 hrs by HPLC analysis; assay type: physicochemical
[19] = system: 4T1; assay: Induction of ferroptosis in mouse 4T1 cells assessed as increase in mitochondrial membrane density at 5 uM incubated for 6 hrs by TEM analysis; assay type: functional, cell-based
[20] = system: 4T1; assay: Induction of intracellular ROS generation in mouse 4T1 cells at 2.5 uM incubated for 6 hrs in presence of Fer-1 by DCFH-DA staining based confocal laser scanning microscopic analysis; assay type: functional, cell-based
[21] = system: HT-1080; assay: Cytotoxicity against human HT-1080 cells assessed as reduction in cell viability incubated for 48 hrs in presence of Fer-1 by MTT assay; assay type: functional, cell-based; conditions: HT-1080, 48 h
[22] = system: 4T1; assay: Induction of LPO accumulation in mouse 4T1 cells at 2.5 uM incubated for 6 hrs by C11-BODIPY staining based confocal laser scanning microscopic analysis; assay type: functional, cell-based
[23] = system: 4T1; assay: Induction of LPO accumulation in mouse 4T1 cells at 2.5 uM incubated for 6 hrs by C11-BODIPY staining based flow cytometric analysis; assay type: functional, cell-based
[24] = system: 4T1; assay: Antitumor activity against mouse 4T1 cells xenografted in BALB/c mouse assessed as tumor growth inhibition at 30 mg/kg, iv administered every two days for total 5 times and monitered every two days by electronic caliper method; assay type: functional; conditions: 4T1, iv, 48 h, read-out: TGI
[25] = system: 4T1; assay: Induction of ferroptosis in mouse 4T1 cells assessed as reversal of cytotoxicity after 48 hrs in presence of glutathione by MTT assay; assay type: functional, cell-based
[26] = system: 4T1; assay: Induction of ferroptosis in mouse 4T1 cells assessed as reversal of cytotoxicity after 48 hrs in presence of NAC by MTT assay; assay type: functional, cell-based
[27] = system: 4T1; assay: Effect on intracellular GSH level in mouse 4T1 cells assessed as reduction in GSH level; assay type: functional, cell-based
[28] = system: 4T1; assay: Induction of ferroptosis in mouse 4T1 cells assessed as reduction in GSH levels at 5 uM; assay type: functional, cell-based
[29] = system: 4T1; assay: Induction of LPO accumulation in mouse 4T1 cells at 2.5 uM incubated for 6 hrs in presence of Fer-1 by C11-BODIPY staining based flow cytometric analysis; assay type: functional, cell-based

O=C(NCCc1ccccc1)C(c1csc2ccccc12)N(C(=O)CCl)c1ccc(-c2cnco2)cc1 (stereo unspecified)
Activity [1]: Active
IC50 [2]: 0.78 µM
Ratio IC50 [3]: 31.5
Activity [4]: Active
Activity [5]: inactive
Activity [6]: Active
inhibition [7]: 11.8%
Activity [8]: inactive
Activity [9]: Non-Toxic
inhibition in vivo at 15 mg/kg [10]: 33.2%
IC50 [11]: 0.15 µM
Activity [12]: Dose-Dependent Effect
Activity [13]: Active
IC50 [14]: 6.9 µM
Activity [15]: Active
Activity [16]: Non-Toxic
Activity [17]: Non-Toxic
Stabilty [18]: Stable
Activity [19]: Active
Activity [20]: inactive
IC50 [21]: 4.73 µM
Activity [22]: Active
Activity [23]: Active
inhibition in vivo at 30 mg/kg [24]: 55.1%
Activity [25]: Active
Activity [26]: Active
Activity [27]: inactive
Activity [28]: Active
Activity [29]: inactive

N#Cc1ccc(N(C(=O)CCl)C(C(=O)NCCc2ccccc2)c2c[nH]c3ccccc23)cc1 (stereo unspecified)
IC50 [2]: 9.3 µM
Ratio IC50 [3]: 5.6
IC50 [11]: 0.75 µM
IC50 [14]: 6.85 µM
IC50 [21]: 4.2 µM

CCOC(=O)c1ccc(N(C(=O)CCl)C(C(=O)NCCc2ccccc2)c2c[nH]c3ncccc23)cc1 (stereo unspecified)
IC50 [2]: 9.3 µM
Ratio IC50 [3]: 1.7
IC50 [11]: 3.2 µM
IC50 [14]: 6.85 µM
IC50 [21]: 5.3 µM

CCOC(=O)c1ccc(N(C(=O)CCl)C(C(=O)NCCc2cccc(OC)c2)c2c[nH]c3ccccc23)cc1 (stereo unspecified)
IC50 [2]: 2.35 µM
Ratio IC50 [3]: 11.9
IC50 [11]: 0.41 µM
IC50 [14]: 11.3 µM
IC50 [21]: 4.88 µM

CCOC(=O)c1ccc(N(C(=O)CCl)C(C(=O)NCCc2ccccc2)c2csc3ccccc23)cc1 (stereo unspecified)
IC50 [2]: 1.48 µM
Ratio IC50 [3]: 16.8
IC50 [11]: 0.28 µM
IC50 [14]: 12.5 µM
IC50 [21]: 4.7 µM

CCOC(=O)c1ccc(N(C(=O)CCl)C(C(=O)NCCc2ccccc2)c2cc[nH]n2)cc1 (stereo unspecified)
IC50 [2]: 4.47 µM
Ratio IC50 [3]: 6.1
IC50 [11]: 0.7 µM
IC50 [14]: 15.2 µM
IC50 [21]: 4.3 µM

O=C(NCCc1ccccc1)C(c1c[nH]c2ccccc12)N(C(=O)CCl)c1ccc(-c2cnco2)cc1 (stereo unspecified)
IC50 [2]: 1.04 µM
Ratio IC50 [3]: 24.5
IC50 [11]: 0.16 µM
IC50 [14]: 5.7 µM
IC50 [21]: 3.92 µM

C=CCNC(=O)C(c1c[nH]c2ccccc12)N(C(=O)CCl)c1ccc(C(=O)OCC)cc1 (stereo unspecified)
IC50 [2]: 2.15 µM
Ratio IC50 [3]: 6.2
IC50 [11]: 0.74 µM
IC50 [14]: 12.6 µM
IC50 [21]: 4.57 µM

CCOC(=O)c1ccc(N(C(=O)CCl)C(C(=O)NCCc2ccccc2)c2c[nH]c3ccccc23)cc1 (stereo unspecified)
IC50 [2]: 1.93 µM
Ratio IC50 [3]: 14.7
IC50 [11]: 0.3 µM
IC50 [14]: 8.71 µM
IC50 [21]: 4.43 µM

O=C(NCCc1ccccc1)C(c1csc2ccccc12)N(C(=O)CCl)c1ccc(-c2nnco2)cc1 (stereo unspecified)
IC50 [2]: 0.81 µM
Ratio IC50 [3]: 19.5
IC50 [11]: 0.2 µM
IC50 [14]: 7.06 µM
IC50 [21]: 3.9 µM

CCOC(=O)c1ccc(N(C(=O)CCl)C(C(=O)NC(C)(C)C)c2c[nH]c3ccccc23)cc1 (stereo unspecified)
IC50 [2]: 3.22 µM
Ratio IC50 [3]: 9.8
IC50 [11]: 0.43 µM
IC50 [14]: 12.1 µM
IC50 [21]: 4.2 µM

CCOC(=O)c1ccc(N(C(=O)CCl)C(C(=O)NCc2ccccc2)c2c[nH]c3ccccc23)cc1 (stereo unspecified)
IC50 [2]: 4.92 µM
Ratio IC50 [3]: 5.8
IC50 [11]: 1.1 µM
IC50 [14]: 11.9 µM
IC50 [21]: 6.4 µM

CCOC(=O)c1ccc(CN(C(=O)CCl)C(C(=O)NC(C)(C)C)c2c[nH]c3ccccc23)cc1 (stereo unspecified)
IC50 [2]: 9.43 µM
Ratio IC50 [3]: 1
IC50 [11]: 16 µM
IC50 [14]: 15.5 µM
IC50 [21]: 16 µM

Cc1noc(-c2ccc(N(C(=O)CCl)C(C(=O)NCCc3ccccc3)c3csc4ccccc34)cc2)n1 (stereo unspecified)
IC50 [2]: 0.75 µM
Ratio IC50 [3]: 16.7
IC50 [11]: 0.21 µM
IC50 [14]: 8.28 µM
IC50 [21]: 3.5 µM

COC(=O)c1ccc([C@H]2c3[nH]c4ccccc4c3C[C@H](C(=O)OC)N2C(=O)CCl)cc1
IC50 [2]: 3.69 µM
Ratio IC50 [3]: 3.1
inhibition [7]: 11.8%
IC50 [11]: 1.2 µM
IC50 [14]: 13.6 µM
IC50 [21]: 3.7 µM
Activity [27]: inactive
